Data published in ChEMBL document CHEMBL4346757, “Synthesis and biological evaluation of 7-methoxy-1-(3,4,5-trimethoxyphenyl)-4,5-dihydro-2H-benzo[e]indazoles as new colchicine site inhibitors” (Bioorg Med Chem Lett, 2019).

Assays:
Assay type in all cases: functional
[1] = tested on: UACC-62; experiment: Growth inhibition of human UACC62 cells assessed as cell growth at 0.01 uM after 48 hrs by SRB assay relative to control; conditions: UACC-62, 48 h, read-out: Activity
[2] = tested on: SK-OV-3; experiment: Growth inhibition of human SKOV3 cells assessed as cell growth at 0.01 uM after 48 hrs by SRB assay relative to control; conditions: SK-OV-3, 48 h, read-out: Activity
[3] = tested on: EKVX; experiment: Growth inhibition of human EKVX cells assessed as cell growth at 0.1 uM after 48 hrs by SRB assay relative to control; conditions: read-out: Activity
[4] = tested on: MDA-MB-435; experiment: Growth inhibition of human MDA-MB-435 cells assessed as cell growth at 0.1 uM after 48 hrs by SRB assay relative to control; conditions: MDA-MB-435, 48 h, read-out: Activity
[5] = tested on: CAKI-1; experiment: Growth inhibition of human Caki1 cells assessed as cell growth at 0.1 uM after 48 hrs by SRB assay relative to control; conditions: CAKI-1, 48 h, read-out: Activity
[6] = tested on: UO-31; experiment: Growth inhibition of human UO31 cells assessed as cell growth at 0.1 uM after 48 hrs by SRB assay relative to control; conditions: UO-31, 48 h, read-out: Activity
[7] = tested on: RPMI-8226; experiment: Growth inhibition of human RPMI8226 cells assessed as cell growth at 1 uM after 48 hrs by SRB assay relative to control; conditions: RPMI-8226, 48 h, read-out: Activity
[8] = tested on: HCT-15; experiment: Growth inhibition of human HCT15 cells assessed as cell growth at 1 uM after 48 hrs by SRB assay relative to control; conditions: HCT-15, 48 h, read-out: Activity
[9] = tested on: HT-29; experiment: Growth inhibition of human HT-29 cells assessed as cell growth at 1 uM after 48 hrs by SRB assay relative to control; conditions: HT-29, 48 h, read-out: Activity
[10] = tested on: LOX IMVI; experiment: Growth inhibition of human LOXIMVI cells assessed as cell growth at 1 uM after 48 hrs by SRB assay relative to control; conditions: read-out: Activity
[11] = tested on: Malme-3M; experiment: Growth inhibition of human MALME-3M cells assessed as cell growth at 1 uM after 48 hrs by SRB assay relative to control; conditions: read-out: Activity
[12] = tested on: MDA-MB-435; experiment: Growth inhibition of human MDA-MB-435 cells assessed as cell growth at 1 uM after 48 hrs by SRB assay relative to control; conditions: MDA-MB-435, 48 h, read-out: Activity
[13] = tested on: SK-MEL-28; experiment: Growth inhibition of human SK-MEL-28 cells assessed as cell growth at 1 uM after 48 hrs by SRB assay relative to control; conditions: SK-MEL-28, 48 h, read-out: Activity
[14] = tested on: SK-MEL-5; experiment: Growth inhibition of human SK-MEL-5 cells assessed as cell growth at 1 uM after 48 hrs by SRB assay relative to control; conditions: SK-MEL-5, 48 h, read-out: Activity
[15] = tested on: OVCAR-5; experiment: Growth inhibition of human OVCAR5 cells assessed as cell growth at 1 uM after 48 hrs by SRB assay relative to control; conditions: OVCAR-5, 48 h, read-out: Activity
[16] = tested on: A549; experiment: Growth inhibition of human A549/ATCC cells assessed as cell growth at 10 uM after 48 hrs by SRB assay relative to control; conditions: A549, 48 h, read-out: Activity
[17] = tested on: NCI-H522; experiment: Growth inhibition of human NCI-H522 cells assessed as cell growth at 10 uM after 48 hrs by SRB assay relative to control; conditions: NCI-H522, 48 h, read-out: Activity
[18] = tested on: HCT-15; experiment: Growth inhibition of human HCT15 cells assessed as cell growth at 10 uM after 48 hrs by SRB assay relative to control; conditions: HCT-15, 48 h, read-out: Activity
[19] = tested on: U-251; experiment: Growth inhibition of human U251 cells assessed as cell growth at 10 uM after 48 hrs by SRB assay relative to control; conditions: U-251, 48 h, read-out: Activity
[20] = tested on: Malme-3M; experiment: Growth inhibition of human MALME-3M cells assessed as cell growth at 10 uM after 48 hrs by SRB assay relative to control; conditions: read-out: Activity
[21] = tested on: MDA-MB-435; experiment: Growth inhibition of human MDA-MB-435 cells assessed as cell growth at 10 uM after 48 hrs by SRB assay relative to control; conditions: MDA-MB-435, 48 h, read-out: Activity
[22] = tested on: SK-MEL-5; experiment: Growth inhibition of human SK-MEL-5 cells assessed as cell growth at 10 uM after 48 hrs by SRB assay relative to control; conditions: SK-MEL-5, 48 h, read-out: Activity
[23] = tested on: PC-3; experiment: Growth inhibition of human PC3 cells assessed as cell growth at 10 uM after 48 hrs by SRB assay relative to control; conditions: PC-3, 48 h, read-out: Activity
[24] = tested on: K562; experiment: Growth inhibition of human K562 cells assessed as cell growth at 100 uM after 48 hrs by SRB assay relative to control; conditions: K562, 48 h, read-out: Activity
[25] = tested on: MOLT-4; experiment: Growth inhibition of human MOLT4 cells assessed as cell growth at 100 uM after 48 hrs by SRB assay relative to control; conditions: MOLT-4, 48 h, read-out: Activity
[26] = tested on: SW-620; experiment: Growth inhibition of human SW620 cells assessed as cell growth at 100 uM after 48 hrs by SRB assay relative to control; conditions: SW-620, 48 h, read-out: Activity
[27] = tested on: SF-539; experiment: Growth inhibition of human SF539 cells assessed as cell growth at 100 uM after 48 hrs by SRB assay relative to control; conditions: SF-539, 48 h, read-out: Activity
[28] = tested on: Malme-3M; experiment: Growth inhibition of human MALME-3M cells assessed as cell growth at 100 uM after 48 hrs by SRB assay relative to control; conditions: read-out: Activity
[29] = tested on: IGROV-1; experiment: Growth inhibition of human IGROV1 cells assessed as cell growth at 100 uM after 48 hrs by SRB assay relative to control; conditions: IGROV-1, 48 h, read-out: Activity
[30] = tested on: PC-3; experiment: Growth inhibition of human PC3 cells assessed as cell growth at 100 uM after 48 hrs by SRB assay relative to control; conditions: PC-3, 48 h, read-out: Activity
[31] = tested on: HOP-92; experiment: Cytotoxicity against human HOP92 cells assessed as growth inhibition after 48 hrs by SRB assay; conditions: HOP-92, 48 h
[32] = tested on: SNB-75; experiment: Cytotoxicity against human SNB75 cells assessed as growth inhibition after 48 hrs by SRB assay; conditions: SNB-75, 48 h
[33] = tested on: SK-MEL-28; experiment: Cytotoxicity against human SK-MEL-28 cells assessed as growth inhibition after 48 hrs by SRB assay; conditions: SK-MEL-28, 48 h
[34] = read-out: LC50 (the source's name)
[35] = read-out: pLC50 (the source's name) (converted)

## COc1ccc2c(c1)CCc1n[nH]c(-c3cc(OC)c(OC)c(OC)c3)c1-2
[1]
  growth at 0.01 µM: 23%
[2]
  growth at 0.01 µM: -1%
[3]
  growth at 0.1 µM: 53%
[4]
  growth at 0.1 µM: -39%
[5]
  growth at 0.1 µM: 23%
[6]
  growth at 0.1 µM: 30%
[7]
  growth at 1 µM: 52%
[8]
  growth at 1 µM: 4%
[9]
  growth at 1 µM: 5%
[10]
  growth at 1 µM: 18%
[11]
  growth at 1 µM: 44%
[12]
  growth at 1 µM: -35%
[13]
  growth at 1 µM: 54%
[14]
  growth at 1 µM: -24%
[15]
  growth at 1 µM: 43%
[16]
  growth at 10 µM: 11%
[17]
  growth at 10 µM: -17%
[18]
  growth at 10 µM: 3%
[19]
  growth at 10 µM: 5%
[20]
  growth at 10 µM: 41%
[21]
  growth at 10 µM: -38%
[22]
  growth at 10 µM: -21%
[23]
  growth at 10 µM: 14%
[24]
  growth at 100 µM: 7%
[25]
  growth at 100 µM: 6%
[26]
  growth at 100 µM: -75%
[27]
  growth at 100 µM: -78%
[28]
  growth at 100 µM: -36%
[29]
  growth at 100 µM: -33%
[30]
  growth at 100 µM: -43%
[31]; read-out: GI50
  GI50: < 0.01 µM
[31]; [34]
  CC50: 99.8 µM
[31]; read-out: TGI
  TGI: 28.5 µM
[31]; read-out: pGI50 (converted)
  GI50: < 0.01 µM
[31]; [35]
  CC50: 100 µM
[31]; read-out: pTGI (converted)
  TGI: 28.2 µM
[32]; read-out: GI50
  GI50: < 0.01 µM
[32]; [34]
  CC50: > 100 µM
[32]; read-out: TGI
  TGI: 26.1 µM
[32]; read-out: pGI50 (converted)
  GI50: < 0.01 µM
[32]; [35]
  CC50: > 100 µM
[32]; read-out: pTGI (converted)
  TGI: 26.3 µM
[33]; read-out: GI50
  GI50: 1.62 µM
[33]; read-out: LC50
  LC50 (concentration killing 50% of cells): 68.8 µM
[33]; read-out: TGI
  TGI: 21.7 µM
[33]; read-out: pGI50 (converted)
  GI50: 1.62 µM
[33]; read-out: pLC50 (converted)
  LC50 (concentration killing 50% of cells): 69.2 µM
[33]; read-out: pTGI (converted)
  TGI: 21.9 µM
